Results published in patent publication US20070117770A1, “Human ribosomal DNA (rDNA) and ribosomal RNA (rRNA) nucleic acids and uses thereof” (Cylene Pharmaceuticals, Inc., priority 2005, published 2007).

Key:
Test in all cases: Protein kinase inhibition assay
Format in all cases: biochemical
[1] = molecular target: Arg(m) (Mus musculus, UniProt Q4JIM5); settings: read-out: percent residual activity of Arg(m)
Protocol: (§1) Certain compounds were tested for activity in protein kinase inhibition assays. All substrates were dissolved and diluted to working stocks in de-ionized water, apart from histone H1 (10× working stock in 20 mM MOPS pH 7.0), PDKtide (10× working stock in 50 mM Tris pH 7.0) ATF2 (which is typically stored at a 20× working stock in 50 mM Tris pH 7.5, 150 mM NaCl, 0.1 mM EGTA, 0.03% Brij-35, 50% glycerol, 1 mM benzamidine, 0.2 mM PMSF and 0.1% R-mercaptoethanol), KKLNRTLSFAEPG (SEQ ID NO:203) and RRRLSFAEPG (SEQ ID NO:204) (50 mM HEPES pH 7.4) and GGEEEEYFELVKKKK (SEQ ID NO:205) (20 mM MOPS pH 7.0). All kinases were pre-diluted to a 10× working concentration prior to addition into the assay. The composition of the dilution buffer for each kinase is detailed below.
(§2) In a final reaction volume of 25 μl, Arg (m) (5-10 mU) is incubated with 8 mM MOPS pH 7.0, 0.2 mM EDTA, 50 μM EAIYAAPFAKKK (SEQ ID NO:206), 10 mM MgAcetate and [gamma-33P-ATP] (specific activity approx. 500 cpm/pmol, concentration as required). The reaction is initiated by the addition of the MgATP mix. After incubation for 40 minutes at room temperature, the reaction is stopped by the addition of 5 μl of a 3% phosphoric acid solution. 10 μl of the reaction is then spotted onto a P30 filtermat and washed three times for 5 minutes in 75 mM phosphoric acid and once in methanol prior to drying and scintillation counting.

[2] = molecular target: BRK(h) (Homo sapiens, UniProt Q13882); settings: read-out: percent residual activity of BRK(h)
Protocol: as §1
as §2, with “BRK (h)” for “Arg (m)”, “5 mM MnCl2, 0.1 mg/ml poly (Glu, Tyr) 4:1,” for “50 μM EAIYAAPFAKKK (SEQ ID NO:206),”, “Filtermat A” for “P30 filtermat”

[3] = molecular target: Fes(h) (Homo sapiens, UniProt P07332); settings: read-out: percent residual activity of Fes(h)
Protocol: as §1
as §2, with “Fes (h)” for “Arg (m)”, “0.1 mg/ml poly(Glu, Tyr) 4:1,” for “50 μM EAIYAAPFAKKK (SEQ ID NO:206),”, “[y-33P-ATP]” for “[gamma-33P-ATP]”, “Filtermat A” for “P30 filtermat”

[4] = molecular target: Flt3(h) (Homo sapiens, UniProt P36888); settings: read-out: percent residual activity of Flt3(h)
Protocol: as §1
as §2, with “Flt3 (h)” for “Arg (m)”

[5] = molecular target: MEK1(h) (Homo sapiens, UniProt Q02750); settings: read-out: percent residual activity of MEK1(h)
Protocol: as §1
The reaction is initiated by the addition of the MgATP. After incubation for 40 minutes at room temperature, 5 μl of this incubation mix is used to initiate a MAPK2 (m) assay, which is described on page 12 of this book.

[6] = molecular target: SAPK2b(h) (Homo sapiens, UniProt Q15759); settings: read-out: percent residual activity of SAPK2b(h)
Protocol: as §1
as §2, with “SAPK2b (h)” for “Arg (m)”, “25” for “8”, “Tris” for “MOPS”, “7.5, 0.02” for “7.0, 0.2”, “EGTA, 0.33 mg/ml myelin basic protein,” for “EDTA, 50 μM EAIYAAPFAKKK (SEQ ID NO:206),”

Sequence of SAPK2b(h) (Q15759 whole entry): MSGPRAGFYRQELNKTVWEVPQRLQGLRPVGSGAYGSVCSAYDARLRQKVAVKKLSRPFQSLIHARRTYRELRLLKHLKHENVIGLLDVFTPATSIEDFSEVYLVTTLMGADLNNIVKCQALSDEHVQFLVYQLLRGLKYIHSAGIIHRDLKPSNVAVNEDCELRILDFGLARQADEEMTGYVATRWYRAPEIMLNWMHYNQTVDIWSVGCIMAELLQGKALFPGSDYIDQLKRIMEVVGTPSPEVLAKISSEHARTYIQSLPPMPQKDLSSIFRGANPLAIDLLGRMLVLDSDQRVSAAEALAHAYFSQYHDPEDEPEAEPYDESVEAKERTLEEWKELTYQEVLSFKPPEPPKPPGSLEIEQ
Sequence of BRK(h) (Q13882 whole entry): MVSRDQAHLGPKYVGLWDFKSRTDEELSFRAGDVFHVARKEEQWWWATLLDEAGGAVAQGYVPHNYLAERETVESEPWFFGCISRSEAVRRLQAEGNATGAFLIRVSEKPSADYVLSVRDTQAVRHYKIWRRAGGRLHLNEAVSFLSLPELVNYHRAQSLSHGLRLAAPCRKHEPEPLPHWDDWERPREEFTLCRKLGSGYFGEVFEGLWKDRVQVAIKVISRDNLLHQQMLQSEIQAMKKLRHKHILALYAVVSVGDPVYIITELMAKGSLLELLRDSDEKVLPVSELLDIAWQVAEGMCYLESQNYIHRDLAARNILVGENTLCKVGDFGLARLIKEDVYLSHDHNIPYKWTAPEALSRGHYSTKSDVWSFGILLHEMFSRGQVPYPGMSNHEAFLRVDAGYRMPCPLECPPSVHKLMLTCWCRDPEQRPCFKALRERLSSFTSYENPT
Sequence of Flt3(h) (P36888 27-993): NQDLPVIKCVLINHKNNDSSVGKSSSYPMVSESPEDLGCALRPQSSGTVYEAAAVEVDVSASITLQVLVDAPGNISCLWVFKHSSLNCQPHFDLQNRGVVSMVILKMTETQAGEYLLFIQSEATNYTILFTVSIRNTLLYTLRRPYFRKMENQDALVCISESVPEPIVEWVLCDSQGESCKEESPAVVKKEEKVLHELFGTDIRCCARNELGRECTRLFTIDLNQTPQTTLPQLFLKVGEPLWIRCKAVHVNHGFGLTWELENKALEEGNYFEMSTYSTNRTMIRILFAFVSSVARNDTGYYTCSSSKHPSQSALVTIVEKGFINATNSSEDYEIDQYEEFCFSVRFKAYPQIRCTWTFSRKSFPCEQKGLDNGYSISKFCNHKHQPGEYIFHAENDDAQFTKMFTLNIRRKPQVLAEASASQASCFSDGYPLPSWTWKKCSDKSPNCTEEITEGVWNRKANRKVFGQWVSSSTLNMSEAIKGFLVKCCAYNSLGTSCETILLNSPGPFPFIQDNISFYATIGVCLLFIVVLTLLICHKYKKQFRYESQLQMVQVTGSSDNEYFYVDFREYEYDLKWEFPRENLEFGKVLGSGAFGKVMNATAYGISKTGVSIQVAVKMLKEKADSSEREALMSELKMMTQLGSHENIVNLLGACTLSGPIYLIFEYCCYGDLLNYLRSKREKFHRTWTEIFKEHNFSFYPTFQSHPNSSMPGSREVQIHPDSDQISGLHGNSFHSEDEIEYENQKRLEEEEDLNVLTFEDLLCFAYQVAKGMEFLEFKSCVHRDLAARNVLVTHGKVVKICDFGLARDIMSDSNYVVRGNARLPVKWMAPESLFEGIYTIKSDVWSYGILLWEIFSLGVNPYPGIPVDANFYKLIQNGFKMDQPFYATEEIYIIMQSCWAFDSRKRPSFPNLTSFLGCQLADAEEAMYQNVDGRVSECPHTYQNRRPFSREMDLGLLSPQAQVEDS
Sequence of MEK1(h) (Q02750 whole entry): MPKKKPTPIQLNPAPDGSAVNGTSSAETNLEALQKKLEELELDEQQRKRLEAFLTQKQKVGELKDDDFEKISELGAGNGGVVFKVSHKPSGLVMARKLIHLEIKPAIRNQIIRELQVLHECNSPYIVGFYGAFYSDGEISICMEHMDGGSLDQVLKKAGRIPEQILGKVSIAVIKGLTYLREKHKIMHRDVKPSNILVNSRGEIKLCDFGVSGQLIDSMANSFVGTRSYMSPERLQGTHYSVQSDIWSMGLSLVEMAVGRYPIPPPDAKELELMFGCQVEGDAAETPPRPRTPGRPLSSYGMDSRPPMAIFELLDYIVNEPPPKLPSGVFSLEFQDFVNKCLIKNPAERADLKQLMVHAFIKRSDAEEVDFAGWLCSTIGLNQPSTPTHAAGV
Sequence of Fes(h) (P07332 whole entry): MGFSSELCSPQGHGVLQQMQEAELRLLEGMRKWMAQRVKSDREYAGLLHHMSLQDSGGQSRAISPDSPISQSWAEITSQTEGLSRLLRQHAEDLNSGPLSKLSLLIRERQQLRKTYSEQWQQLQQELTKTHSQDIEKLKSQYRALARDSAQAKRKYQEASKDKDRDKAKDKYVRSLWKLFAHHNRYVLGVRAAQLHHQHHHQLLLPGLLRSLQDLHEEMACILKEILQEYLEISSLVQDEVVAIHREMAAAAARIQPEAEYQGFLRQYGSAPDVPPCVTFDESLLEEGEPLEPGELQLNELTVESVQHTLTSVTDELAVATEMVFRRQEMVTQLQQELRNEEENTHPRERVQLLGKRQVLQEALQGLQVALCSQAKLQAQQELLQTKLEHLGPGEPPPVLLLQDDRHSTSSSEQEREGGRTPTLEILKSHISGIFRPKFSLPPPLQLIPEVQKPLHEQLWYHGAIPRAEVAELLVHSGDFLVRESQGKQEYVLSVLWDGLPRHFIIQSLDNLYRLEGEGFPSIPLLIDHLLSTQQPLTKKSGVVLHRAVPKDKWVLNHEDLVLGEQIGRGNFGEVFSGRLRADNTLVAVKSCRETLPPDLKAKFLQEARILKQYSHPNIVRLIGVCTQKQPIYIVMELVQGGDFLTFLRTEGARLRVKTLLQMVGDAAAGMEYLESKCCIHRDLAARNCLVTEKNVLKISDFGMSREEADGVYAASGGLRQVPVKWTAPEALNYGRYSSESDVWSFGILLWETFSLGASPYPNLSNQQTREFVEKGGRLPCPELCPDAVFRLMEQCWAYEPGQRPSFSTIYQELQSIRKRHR
Sequence of Arg(m) (Q4JIM5 whole entry): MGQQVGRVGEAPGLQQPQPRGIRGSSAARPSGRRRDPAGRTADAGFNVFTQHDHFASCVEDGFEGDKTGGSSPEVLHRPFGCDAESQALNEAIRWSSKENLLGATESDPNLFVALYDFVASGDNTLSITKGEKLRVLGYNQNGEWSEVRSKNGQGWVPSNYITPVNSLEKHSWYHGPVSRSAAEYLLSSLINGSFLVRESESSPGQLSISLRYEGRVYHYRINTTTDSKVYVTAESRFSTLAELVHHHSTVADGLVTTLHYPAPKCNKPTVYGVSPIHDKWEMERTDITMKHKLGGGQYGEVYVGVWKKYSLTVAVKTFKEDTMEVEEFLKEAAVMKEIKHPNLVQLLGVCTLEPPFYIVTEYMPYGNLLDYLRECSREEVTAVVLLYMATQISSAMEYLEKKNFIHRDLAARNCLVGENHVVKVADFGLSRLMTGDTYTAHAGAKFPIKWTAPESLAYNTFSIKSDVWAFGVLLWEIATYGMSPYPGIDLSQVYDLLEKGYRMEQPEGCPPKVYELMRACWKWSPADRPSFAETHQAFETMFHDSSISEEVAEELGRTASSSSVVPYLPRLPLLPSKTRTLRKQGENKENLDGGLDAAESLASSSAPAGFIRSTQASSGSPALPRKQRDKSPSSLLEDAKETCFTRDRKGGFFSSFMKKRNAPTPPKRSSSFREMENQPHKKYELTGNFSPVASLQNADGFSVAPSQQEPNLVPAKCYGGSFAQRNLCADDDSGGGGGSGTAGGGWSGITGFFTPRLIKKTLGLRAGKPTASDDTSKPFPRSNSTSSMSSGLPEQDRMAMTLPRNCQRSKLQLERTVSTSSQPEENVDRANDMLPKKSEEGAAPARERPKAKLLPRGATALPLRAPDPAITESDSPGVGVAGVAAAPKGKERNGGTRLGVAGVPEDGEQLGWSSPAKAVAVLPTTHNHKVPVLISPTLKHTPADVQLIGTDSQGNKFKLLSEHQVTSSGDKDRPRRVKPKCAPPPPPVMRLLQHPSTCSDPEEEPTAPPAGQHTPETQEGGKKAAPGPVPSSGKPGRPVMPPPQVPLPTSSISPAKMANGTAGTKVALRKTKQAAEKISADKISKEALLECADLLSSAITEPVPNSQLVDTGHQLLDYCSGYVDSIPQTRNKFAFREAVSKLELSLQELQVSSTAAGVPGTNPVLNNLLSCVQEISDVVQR

| remaining activity at 2.5 µM [1] | remaining activity at 2.5 µM [2] | remaining activity at 2.5 µM [3] | remaining activity at 2.5 µM [4] | remaining activity at 2.5 µM [5] | remaining activity at 2.5 µM [6] | Structure (SMILES) |
| --- | --- | --- | --- | --- | --- | --- |
| 102% | 98% | 101% | 100% | 90% | 94% | CC(=O)N1CCN(c2ccc3c(=O)c(C(=O)NCCN4CCCC4)c4n(C)c5ccccc5n4c3n2)CC1 [Compound B-1] |
| 43% | 131% | 82% | 32% | 87% | 70% | CN1CCCC1CCNC(=O)c1cn2c3c(c(N4CCC(c5cnccn5)C4)c(F)cc3c1=O)Oc1cc3ccccc3cc1-2 (stereo not drawn) [Compound A-1] |
